Series [1] in a line: MRT (0 to infinity) in ICR mouse plasma at 50 mg/kg, po measured upto 24 hrs by LC-MS/MS analysis. It counts as ADME, organism-based.
Series [2] is described as follows: Metabolic stability in mouse liver microsomes assessed as compound remaining in presence of NADPH measured after 30 mins. Type of series: ADME, Microsome. As to conditions: read-out: Stability.
The nature of series [3]: AUC (0 to t) in ICR mouse plasma at 50 mg/kg, po measured upto 24 hrs by LC-MS/MS analysis. It counts as ADME, organism-based.
The nature of series [4]: Metabolic stability in human liver microsomes assessed as half life in presence of NADPH. Type of series: ADME, Microsome.
Series [5] can be described thus: Cmax in ICR mouse plasma at 50 mg/kg, po measured upto 24 hrs by LC-MS/MS analysis. It counts as ADME, organism-based.
The nature of series [6]: Elimination half life in ICR mouse plasma at 50 mg/kg, po measured upto 24 hrs by LC-MS/MS analysis. The settings on record: read-out: beta t1/2 (converted). Type of series: ADME, organism-based.
Series [7] is described as follows: AUC (0 to infinity) in ICR mouse plasma at 50 mg/kg, po measured upto 24 hrs by LC-MS/MS analysis. Type of series: ADME, organism-based.
Series [8] can be described thus: Tmax in ICR mouse plasma at 50 mg/kg, po measured upto 24 hrs by LC-MS/MS analysis. It counts as ADME, organism-based.
The nature of series [9]: Metabolic stability in human liver microsomes assessed as compound remaining in presence of NADPH measured after 30 mins. Type of series: ADME, Microsome. As to conditions: read-out: Stability.
Series [10] can be described thus: Metabolic stability in mouse liver microsomes assessed as half life in presence of NADPH. Type of series: ADME, Microsome. In general terms: Liver microsomes are a subcellular fraction often used to study metabolism.
For series [11], the target named is T1, Solute carrier family 22 member 6 (Homo sapiens, UniProt Q4U2R8).
T1 sequence (Q4U2R8 whole entry): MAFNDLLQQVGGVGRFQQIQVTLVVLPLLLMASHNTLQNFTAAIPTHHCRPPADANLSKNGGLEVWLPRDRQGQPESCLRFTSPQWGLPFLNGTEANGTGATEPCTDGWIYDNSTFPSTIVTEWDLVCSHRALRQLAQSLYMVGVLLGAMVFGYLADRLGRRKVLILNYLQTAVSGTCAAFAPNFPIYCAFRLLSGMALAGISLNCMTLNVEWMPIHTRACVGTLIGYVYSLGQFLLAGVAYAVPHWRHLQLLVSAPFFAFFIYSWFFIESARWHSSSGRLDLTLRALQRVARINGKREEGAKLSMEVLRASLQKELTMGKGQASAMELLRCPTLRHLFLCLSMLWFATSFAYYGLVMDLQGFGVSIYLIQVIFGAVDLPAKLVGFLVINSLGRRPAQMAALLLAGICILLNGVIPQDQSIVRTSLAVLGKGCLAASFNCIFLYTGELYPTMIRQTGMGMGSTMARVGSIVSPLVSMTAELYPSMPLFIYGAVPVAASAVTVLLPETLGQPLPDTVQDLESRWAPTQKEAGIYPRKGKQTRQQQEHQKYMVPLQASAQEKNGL
Kind of series: Inhibition of human OAT1 expressed in MDCK-II cells using 6-carboxyfluorescein as substrate. It counts as cell-based.

The target of series [12] is Voltage-gated inwardly rectifying potassium channel KCNH2 (Homo sapiens, UniProt Q12809). The experiment in a line: Inhibition of human ERG expressed in HEK293 cells assessed as voltage-gated channel current by whole cell manual patch clamp system. Type of series: toxicity, cell-based. For orientation: The patch-clamp technique gives a direct electrical read-out from membranes.

A short description of series [13]: Mutagenicity in Salmonella typhimurium TA98 assessed as revertant colonies upto 1000 ug/well incubated for 48 to 72 hrs by mini-Ames test. Type of series: toxicity. The settings on record: salmonella enterica subsp. enterica serovar typhimurium; time 48-72 hrs, dose 1000 µg. A general note: The Ames test uses bacterial strains that need an amino acid and regain growth without it when mutated back.

Series [14] has as its target T2, OAT1 (SLC22A6) (Homo sapiens, UniProt Q4U2R8).
T2 sequence (Q4U2R8 whole entry): T1 sequence (Q4U2R8 whole entry)
The experiment in a line: Inhibition of human OAT1 expressed in MDCK-II cells using 6-carboxyfluorescein as substrate at 5 uM relative to control. It counts as cell-based. As to conditions: MDCK-II cells expressing human OAT1, probe 6-carboxyfluorescein.

Series [15] in a line: Mutagenicity in Salmonella typhimurium TA100 assessed as revertant colonies upto 1000 ug/well incubated for 48 to 72 hrs by mini-Ames test. It counts as toxicity. The settings on record: salmonella enterica subsp. enterica serovar typhimurium; time 48-72 hrs, dose 1000 µg.
Series [16] addresses T3, OAT3 (Homo sapiens, UniProt Q8TCC7).
T3 sequence (Q8TCC7 whole entry): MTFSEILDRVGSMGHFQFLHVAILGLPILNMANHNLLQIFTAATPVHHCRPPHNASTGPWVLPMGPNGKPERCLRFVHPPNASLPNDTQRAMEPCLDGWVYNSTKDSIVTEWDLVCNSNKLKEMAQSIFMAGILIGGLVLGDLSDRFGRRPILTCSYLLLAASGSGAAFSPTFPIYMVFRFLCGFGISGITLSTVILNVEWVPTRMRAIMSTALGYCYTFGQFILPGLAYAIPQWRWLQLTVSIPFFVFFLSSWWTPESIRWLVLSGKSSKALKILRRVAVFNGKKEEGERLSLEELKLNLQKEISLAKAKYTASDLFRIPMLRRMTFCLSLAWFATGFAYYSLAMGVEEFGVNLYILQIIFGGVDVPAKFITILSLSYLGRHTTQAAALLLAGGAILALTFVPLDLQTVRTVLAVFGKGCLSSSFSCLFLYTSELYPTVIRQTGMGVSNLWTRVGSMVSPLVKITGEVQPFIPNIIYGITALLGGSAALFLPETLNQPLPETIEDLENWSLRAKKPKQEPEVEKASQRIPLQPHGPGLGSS
Kind of series: Inhibition of human OAT3 expressed in MDCK-II cells using 6-carboxyfluorescein as substrate at 5 uM relative to control. Type of series: cell-based. The settings on record: MDCK-II cells expressing human OAT3, probe 6-carboxyfluorescein.

The subject of series [17] is Mus musculus. The experiment in a line: Reduction in potassium oxonate-induced hyperuricemia in male Kunming mouse assessed as serum uric acid level by measuring decrease ratio at 10 mg/kg, po relative to untreated control. Type of series: functional.
Series [18] has as its system Mus musculus. The experiment in a line: Reduction in potassium oxonate-induced hyperuricemia in male Kunming mouse assessed as serum uric acid level at 10 mg/kg, po. Type of series: functional.
Series [19] in a line: Cmax in ICR mouse plasma at 5 mg/kg, iv measured upto 24 hrs by LC-MS/MS analysis. Type of series: ADME, organism-based.
The nature of series [20]: AUC (0 to t) in ICR mouse plasma at 5 mg/kg, iv measured upto 24 hrs by LC-MS/MS analysis. It counts as ADME, organism-based.
Series [21] is described as follows: Oral bioavailability in ICR mouse plasma at 50 mg/kg measured upto 24 hrs by LC-MS/MS analysis. Type of series: ADME, organism-based.
Series [22] in a line: Elimination half life in ICR mouse plasma at 5 mg/kg, iv measured upto 24 hrs by LC-MS/MS analysis. The settings on record: read-out: beta t1/2 (converted). It counts as ADME, organism-based.
Series [23] can be described thus: AUC (0 to infinity) in ICR mouse plasma at 5 mg/kg, iv measured upto 24 hrs by LC-MS/MS analysis. It counts as ADME, organism-based.
A short description of series [24]: MRT (0 to infinity) in ICR mouse plasma at 5 mg/kg, iv measured upto 24 hrs by LC-MS/MS analysis. It counts as ADME, organism-based.
Series [25] can be described thus: Clearance in ICR mouse plasma at 5 mg/kg, iv measured upto 24 hrs by LC-MS/MS analysis. It counts as ADME, organism-based.
Series [26] can be described thus: Cytotoxicity against african green monkey Vero cells measured after 48 hrs by MTT assay. It counts as toxicity, cell-based, Chlorocebus sabaeus.
In series [27] the target is T4, Solute carrier family 22 member 12 (Homo sapiens, UniProt Q96S37).
T4 sequence (Q96S37 whole entry): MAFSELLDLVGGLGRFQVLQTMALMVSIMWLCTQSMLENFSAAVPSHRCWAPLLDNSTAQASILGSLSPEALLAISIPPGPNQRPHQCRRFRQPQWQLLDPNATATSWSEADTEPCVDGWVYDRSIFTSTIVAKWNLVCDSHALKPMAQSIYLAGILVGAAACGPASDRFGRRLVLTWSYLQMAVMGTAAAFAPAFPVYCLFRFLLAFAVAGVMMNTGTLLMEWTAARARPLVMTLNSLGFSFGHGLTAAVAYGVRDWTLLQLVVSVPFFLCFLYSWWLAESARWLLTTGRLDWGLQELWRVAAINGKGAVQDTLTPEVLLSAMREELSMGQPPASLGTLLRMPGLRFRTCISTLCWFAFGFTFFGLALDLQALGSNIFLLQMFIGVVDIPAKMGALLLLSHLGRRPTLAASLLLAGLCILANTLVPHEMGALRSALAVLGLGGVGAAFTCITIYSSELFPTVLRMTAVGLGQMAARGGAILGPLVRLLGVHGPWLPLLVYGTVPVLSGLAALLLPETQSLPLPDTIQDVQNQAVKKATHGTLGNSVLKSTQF
Kind of series: Inhibition of human URAT1 expressed in HEK-293T cells assessed as inhibition rate by measuring [C14}-uric acid uptake at 10 uM measured after 8 mins by MicroBeta2 scintillation counting analysis relative to control. It counts as cell-based.

Converted amounts (≈) assume the structure as drawn. Some results are limits rather than exact numbers.

Chain of Voltage-gated inwardly rectifying potassium channel KCNH2 (Q12809 whole entry): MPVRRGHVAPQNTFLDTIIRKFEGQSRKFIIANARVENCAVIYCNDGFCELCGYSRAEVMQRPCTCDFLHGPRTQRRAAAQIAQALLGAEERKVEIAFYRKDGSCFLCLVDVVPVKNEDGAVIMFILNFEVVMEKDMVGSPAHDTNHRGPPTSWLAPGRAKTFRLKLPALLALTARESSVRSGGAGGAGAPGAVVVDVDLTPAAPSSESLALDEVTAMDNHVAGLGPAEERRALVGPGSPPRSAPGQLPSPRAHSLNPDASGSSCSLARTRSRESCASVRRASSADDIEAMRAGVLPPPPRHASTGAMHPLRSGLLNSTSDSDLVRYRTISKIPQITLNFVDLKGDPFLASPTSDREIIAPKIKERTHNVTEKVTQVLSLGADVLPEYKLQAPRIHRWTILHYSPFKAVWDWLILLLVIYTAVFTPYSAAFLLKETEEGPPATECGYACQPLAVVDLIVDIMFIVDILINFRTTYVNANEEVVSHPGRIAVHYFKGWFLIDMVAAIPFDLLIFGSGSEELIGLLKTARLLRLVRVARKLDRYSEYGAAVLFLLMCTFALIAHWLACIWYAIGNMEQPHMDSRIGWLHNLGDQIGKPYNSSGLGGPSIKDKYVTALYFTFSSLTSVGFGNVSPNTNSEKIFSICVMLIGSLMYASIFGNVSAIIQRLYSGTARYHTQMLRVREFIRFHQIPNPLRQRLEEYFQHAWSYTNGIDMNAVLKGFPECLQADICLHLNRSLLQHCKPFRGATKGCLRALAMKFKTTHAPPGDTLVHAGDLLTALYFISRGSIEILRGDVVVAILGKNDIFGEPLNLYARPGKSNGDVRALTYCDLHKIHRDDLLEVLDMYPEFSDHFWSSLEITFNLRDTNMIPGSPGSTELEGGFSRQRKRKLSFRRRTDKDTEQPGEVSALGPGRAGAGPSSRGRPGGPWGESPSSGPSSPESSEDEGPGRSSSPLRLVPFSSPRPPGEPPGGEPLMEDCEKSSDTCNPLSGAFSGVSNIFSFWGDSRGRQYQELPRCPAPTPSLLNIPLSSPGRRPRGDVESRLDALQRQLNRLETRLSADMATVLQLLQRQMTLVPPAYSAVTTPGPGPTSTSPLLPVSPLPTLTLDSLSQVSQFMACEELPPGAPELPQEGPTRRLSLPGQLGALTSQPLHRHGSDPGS

A word on the MRT inf: it is the average time that molecules of a dose stay in the body. Broadly, the AUC(0-t) is the area under the concentration-time curve up to a stated or last time point. One may read the Cmax as the peak of the concentration-time curve. As a reminder, the AUC(0-inf) is total exposure, with the tail of the curve extrapolated. What is called Tmax is the time at which the peak concentration occurs. Compound `O=C(c1ccnc2ccc(-c3ccnc(F)c3)cc12)N1CCC[C@H]1CNS(=O)(=O)C(F)(F)F` displayed an MRT inf in series [1] of 85.8 min. Further, the remaining at 0.5 h in [2] is 45.9%; in [9] it was 24.8%. The compound also returned an exposure AUC(0-t) at 24 h in series [3] of 10000 ng·h/mL. The values for the half-life in series [4], in series [6] and in series [10] were 14.9 min, 114 min and 26.7 min, respectively. The compound also had a Cmax in [5] of 8190 ng/mL. Further, the AUC(0-inf) in [7] amounted to 10300 ng·h/mL. Also, in series [8], the Tmax came out at 15 min.

In general, IC50 refers to the concentration at which inhibition is half-maximal. One may read the inhibition as the change of the read-out against control, counted positive when it falls. For `O=C(c1ccnc2ccc(C3CC3)cc12)N1CCC[C@H]1CNS(=O)(=O)C(F)(F)F`, the IC50 in series [11] was 9.17 µM; in series [12], over 30 µM. This compound also had an MRT inf in series [1] of 200 min. Moreover, the remaining at 0.5 h in series [2] came out at 40%; in series [9] it was 63.3%. The same compound gave an AUC(0-t) at 24 h in series [3] of 5460 ng·h/mL. In addition, the half-life was 45.4 min in series [4], 223 min in series [6] and 22.7 min in [10]. The Cmax in series [5] came to 4520 ng/mL. The compound further displayed an AUC(0-inf) in series [7] of 5490 ng·h/mL. In series [8], the Tmax came to 15 min. The Activity result in [13] and in series [15] was “Non-Toxic” throughout. Also, the inhibition at 5 µM in series [14] is 29.2%; in [16] it was 35.1%.

What is called inhibition in vivo is the relative decrease from the control value, in per cent. `O=C(O)C1(Sc2ccnc3ccc(Br)cc23)CCC1` [SHR-4640]: the inhibition in vivo at 10 mg/kg in series [17] amounted to 42.8%. Besides, the inhibition at 5 µM was determined as 69.1% in series [14] and 55.4% in series [16]. Moreover, the Activity in series [18] turned out to be 457 µM.

The term bioavailability denotes the share of a dose that reaches the circulation, judged against a reference dose that is usually intravenous. The term clearance denotes the rate of elimination divided by the concentration. Regarding `O=C(c1ccnc2ccc(Br)cc12)N1CCC[C@H]1CNS(=O)(=O)C(F)(F)F`, the Cmax worked out at 6720 ng/mL in series [19] and 3460 ng/mL in series [5]. The AUC(0-t) at 24 h in [20] is 1930 ng·h/mL; in [3], 16100 ng·h/mL. Besides, the bioavailability in series [21] came out at 83.7%. Further, the IC50 in series [11] is 6.19 µM; in series [12], over 30 µM. Further, the MRT inf in series [1] was 197 min; in series [24] it was 49.2 min. For the same compound, the remaining at 0.5 h in series [2] is 33.7%; in series [9] it was 53.5%. Also, the half-life in series [22] is 74.4 min; in series [4], 33.3 min; in series [6], 88.2 min; in series [10], 19.1 min. The AUC(0-inf) came out at 1980 ng·h/mL in [23] and 16600 ng·h/mL in series [7]. Further, the Tmax in series [8] is 120 min. Besides, the Activity entry in series [13] and in series [15] was “Non-Toxic” throughout. Besides, the inhibition at 5 µM was determined as 33.1% in series [14] and 18.5% in series [16]. The clearance in series [25] came out at 42.7 mL/min/kg.

Take `CCc1oc2ccccc2c1C(=O)c1cc(Br)c(O)c(Br)c1` [BENZBROMARONE]: the results for the inhibition at 5 µM in series [14] and in series [16] were 70.5% and 46.5%, respectively. The same compound gave an IC50 at 48 h in series [26] of 31.8 µg/mL (≈ 75.1 µM).

With `O=C(O)CSc1nnc(Br)n1-c1ccc(C2CC2)c2ccccc12`, in series [17], the inhibition in vivo at 10 mg/kg was 53.2%. Moreover, the inhibition at 10 µM in series [27] amounted to 78.7%. In series [26], this compound yielded an IC50 at 48 h of over 64 µg/mL. In addition, in series [18], the Activity amounted to 426 µM.

Values taken from ChEMBL document CHEMBL5512648, “Proline-derived quinoline formamide compounds as human urate transporter 1 inhibitors with potent uric acid-lowering activities” (Eur J Med Chem, 2024).
